According to US4520007A, “Anti-coagulants of the 4-hydroxycoumarin type and rodenticidal compositions (baits) comprising such anti-coagulants” (priority 1982, dated 1985):
“Also recorded” adds a separate entry of the source. Where two headings read alike, the source gives them in different places.

Columns and labels:
[1] = tested on: Prothrombin time (blood clotting); test: Prothrombin time ED50 (3 days after intraperitoneal injection); format: in vivo, rat (male Wistar strain); conditions: for ED50: Rattus norvegicus, S100, ip, 72 h, read-out: 3-day ED50 (Prothrombin time ED50); for anticoagulant activity (comparison in words): compared with Brodifacoum or Difenacoum
Description: Compounds in accordance with the invention, and other substituted 4-hydroxy coumarin compounds not within the invention, including Brodifacoum, Difenacoum and Warfarin, were tested as described in the following examples. The Prothrombin time ED50 value is the most reliable method for measuring anticoagulant activity. The LD50 value is of significance in regard to the potency of the compound as a rodenticide.
A preliminary test was carried out to reliably rank the potential rodenticides in order of anticogulant potency.
The method used involved measurement of the Prothrombin time (a measure of blood clotting properties) which is based on that described in a paper by Quick, A. J., Stanley-Brown, M. and Bankoft. F. W. entitled "Study of Coagulation Defect in Haemophilia and in Jaundice" in American Journal of Medical Science, Vol. 190, pages 501-511, 1935. The compounds were dissolved in a 1:9 v/v mixture of triethanolamine and polyethylene glycol 200 Mol Wt and serially diluted to give appropriate doses in 1 ml per 1 kg of animal body weight. The doses were injected into the test animals by the interperitoneal route. Three days after injection, blood was withdrawn by cardiac puncture whilst the test animals (200-250 g Wistar strain male rats) were held under "Halothane" anaesthesia.
Three rats were used in each test of a given compound, and three prothrombin time determinations were carried out on each blood sample. Prothrombin times were determined using the modified one-stage method of Quick. The percentage extension time of each prothrombin time was determined by assigning 0% extension time to an arbitary prothrombin resting time of 12 seconds, and 100% extension time to a prothrombin time elevated to an arbitrary 212 seconds. Results were plotted on log-probability graph paper, the best-line fitted, and the prothrombin the ED50 read from the graph.

[2] = tested on: female rats Homozygous--Resistant Welsh strain; test: 24h no-choice bait feeding test, resistant rats, deaths up to 21 days; format: in vivo, rat (female; conditions: 24h no-choice feed
Description: (§1) Appropriate amounts of Compounds 1,2,3 and 5 were dissolved in acetone and slurried onto rolled oats to give final bait concentrations of 20 ppm for Compounds 1 and 2; and 50 ppm for Compounds 3 and 5. Each bait was offered as a 24h no-choice feed to groups of five individually caged female rats Homozygous--Resistant Welsh strain; and similarly to groups of five individually caged male and female mice (Cambridge Cream Resistant strain).

[3] = tested on: male and female mice (Cambridge Cream Resistant strain); test: 24h no-choice bait feeding test, resistant mice, deaths up to 21 days; format: in vivo, mouse (Cambridge Cream Resistant strain); conditions: 24h no-choice feed
Description: as §1

male rats, Wistar strain = test: 5 day no-choice bait feeding test, deaths up to 21 days; format: in vivo, rat (male; conditions: 5 day no-choice feed
Description: Appropriate amounts of Compounds 1, and 3 and 5 were dissolved in acetone, serially diluted, and slurried onto rolled oats to give final bait concentrations of 5.0, 2.0, 0.5 and 0.2 ppm for Compound 1 and 20.0, 10.0, […] and 2.0 ppm for Compounds 3 and 5. Each bait was offered as a 5 day no-choice feed to groups of five individually caged male rats, Wistar strain.

vitamin K reductase = conditions: literature: Fasco et al 1982; Park et al 1982; cited from earlier work
[4] = tested on: vitamin K 2, 3-epoxide reductase; conditions: literature: Fasco et al 1982; Park et al 1982; cited from earlier work
[5] = tested on: Warfarin-resistant rodents; conditions: prior art; cited from earlier work
[6] = male Wistar rats 200-250 g, single intraperitoneal injection, blood taken three days after injection, ED50 = 50% extension of prothrombin time (0% = 12 s, 100% = 212 s)

SMILES | ED50 [1, 6] [mg/kg] | other results
N#Cc1ccc(CCc2ccc(C3Cc4ccccc4C(c4c(O)c5ccccc5oc4=O)C3)cc2)cc1 (stereo not drawn) [Compound 19] | 0.9 | 
O=c1oc2ccccc2c(O)c1C1CC(c2ccc3c(c2)CCCC3)Cc2ccccc21 (stereo not drawn) [Compound 28, reference compound] | 10 | 
O=c1oc2ccccc2c(O)c1C1CC(c2ccc(CCc3ccc(Cl)cc3)cc2)Cc2ccccc21 (stereo not drawn) [Compound 18] | 0.27 | anticoagulant activity (comparison in words) [1]: activity greater than Brodifacoum
O=c1oc2ccccc2c(O)c1C1CC(c2ccc(OCc3ccc(Cl)c(Cl)c3)cc2)Cc2ccccc21 (stereo not drawn) [Compound 16] | 0.43 | 
O=c1oc2ccccc2c(O)c1C1CC(c2ccc(Oc3ccc(C(F)(F)F)cc3)cc2)Cc2ccccc21 (stereo not drawn) [Compound 20] | 0.23 | anticoagulant activity (comparison in words) [1]: activity greater than Brodifacoum
O=c1oc2ccccc2c(O)c1C1CC(c2ccc(OCc3ccc(C(F)(F)F)cc3)cc2)Cc2ccccc21 (stereo not drawn) [Compound 13] | 0.32 | 
N#Cc1ccc(COc2ccc(C3Cc4ccccc4C(c4c(O)c5ccccc5oc4=O)C3)cc2)cc1 (stereo not drawn) [Compound 12] | 0.8 | 
O=c1oc2ccccc2c(O)c1[C@@H]1C[C@@H](c2ccc(-c3ccc(C(F)(F)F)cc3)cc2)Cc2ccccc21 (relative stereo) [Compound 24, 3[3-(4'-trifluoromethyl-4-yl)-1,2,3,4-tetrahydro-1-naphthyl]-4hydroxycoumarin] | 0.47 | 
O=c1oc2ccccc2c(O)c1C1CC(c2ccc(CCc3ccc(Br)cc3)cc2)Cc2ccccc21 (stereo not drawn) [Compound 17] | 0.37 | 
O=c1oc2ccccc2c(O)c1C1CC(c2ccccc2-c2ccc(C(F)(F)F)cc2)Cc2ccccc21 (stereo not drawn) [Compound 27, reference compound] | > 10 | 
O=c1oc2ccccc2c(O)c1C1CC(c2ccc(CCCc3ccc(Cl)cc3)cc2)Cc2ccccc21 (stereo not drawn) [Compound 23] | 0.23 | anticoagulant activity (comparison in words) [1]: activity greater than Brodifacoum
O=c1oc2ccccc2c(O)c1C1CC(c2ccc(OCc3ccc(F)cc3)cc2)Cc2ccccc21 (stereo not drawn) [Compound 15] | 0.47 | 
N#Cc1ccc(-c2ccc([C@@H]3Cc4ccccc4[C@H](c4c(O)c5ccccc5oc4=O)C3)cc2)cc1 (relative stereo) [Compound 2] | 0.31 | Death up to 21 days, rats ([2]; bait 20.0 ppm): 5/5; Death up to 21 days, mice ([3]; bait 20.0 ppm): 4/5
O=c1oc2ccccc2c(O)c1C1CC(c2ccc(OCc3ccc(Br)cc3)cc2)Cc2ccccc21 (stereo not drawn) [Compound 11] | 0.27 | anticoagulant activity (comparison in words) [1]: activity greater than Brodifacoum
N#Cc1ccc(Oc2ccc(C3Cc4ccccc4C(c4c(O)c5ccccc5oc4=O)C3)cc2)cc1 (stereo not drawn) [Compound 10] | 0.41 | 
O=c1oc2ccccc2c(O)c1[C@@H]1C[C@@H](c2ccc(OCc3ccccc3)cc2)Cc2ccccc21 (relative stereo) [Compound 14, reference compound] | 4.3 | anticoagulant activity (comparison in words) [1]: activity much lower than similarly structured Difenacourm

SMILES | ED50 [1, 6] [mg/kg] | other results
CCCCCCC1Cc2ccccc2C(c2c(O)c3ccccc3oc2=O)C1 (stereo not drawn) [Compound 30, reference compound] | 14 | 
O=c1oc2ccccc2c(O)c1C1CC(c2c(Cl)cccc2Cl)Cc2ccccc21 (stereo not drawn) [Compound 26, reference compound] | 10 | 
N#Cc1ccc(-c2ccc([C@H]3Cc4ccccc4[C@H](c4c(O)c5ccccc5oc4=O)C3)cc2)cc1 (relative stereo) [Compound 1] | 0.45 | Deaths up to 21 days (male rats, Wistar strain; bait 0.2 ppm): 0/5; Deaths up to 21 days (male rats, Wistar strain; bait 0.5 ppm): 5/5; Deaths up to 21 days (male rats, Wistar strain; bait 2.0 ppm): 5/5; Deaths up to 21 days (male rats, Wistar strain; bait 5.0 ppm): 5/5; Death up to 21 days, rats ([2]; bait 20.0 ppm): 5/5; Death up to 21 days, mice ([3]; bait 20.0 ppm): 5/5
N#Cc1ccc(C2Cc3ccccc3C(c3c(O)c4ccccc4oc3=O)C2)cc1 (stereo not drawn) [Compound 7] | 0.54 | 
O=c1oc2ccccc2c(O)c1C1CC(c2ccc([N+](=O)[O-])cc2)Cc2ccccc21 (stereo not drawn) [Compound 9] | 0.8 | 
O=c1oc2ccccc2c(O)c1C1CC(c2ccc(-c3ccc(Br)cc3)cc2)Cc2ccccc21 (stereo not drawn) [Brodifacoum] | 0.28 | anticoagulant activity (comparison in words) [1]: particularly notable activity; inhibiting ability, vitamin K reductase (vitamin K reductase): have this inhibiting ability; inhibiting ability, vitamin K 2,3-epoxide reductase [4]: have this inhibiting ability; effectiveness against Warfarin-resistant rodents [5]: effective against Warfarin-resistant rodents; also recorded: effectiveness against Warfarin-resistant rodents
CC(=O)CC(c1ccccc1)c1c(O)c2ccccc2oc1=O (stereo not drawn) [Warfarin] | 5.2 | inhibiting ability, vitamin K reductase (vitamin K reductase): have this inhibiting ability; inhibiting ability, vitamin K 2,3-epoxide reductase [4]: have this inhibiting ability
O=c1oc2ccccc2c(O)c1C1CC(c2ccc(/C=C/c3ccc(Br)cc3)cc2)Cc2ccccc21 (stereo not drawn) [Compound 21] | 0.8 | 
O=c1oc2ccccc2c(O)c1C1CC(c2ccc(-c3ccccc3)cc2)Cc2ccccc21 (stereo not drawn) [Difenacoum] |  | ED50 [1]: 0.56 mg/kg; activity relative to Brodifacoum ([1]; rat, in vivo): about 36%; inhibiting ability, vitamin K reductase (vitamin K reductase): have this inhibiting ability; inhibiting ability, vitamin K 2,3-epoxide reductase [4]: have this inhibiting ability; effectiveness against Warfarin-resistant rodents [5]: effective against Warfarin-resistant rodents
O=c1oc2ccccc2c(O)c1C1CC(c2ccc(-c3ccc(Br)cc3)o2)Cc2ccccc21 (stereo not drawn) [Compound 8] | 0.78 | 
O=c1oc2ccccc2c(O)c1C1CC(c2ccc(C(F)(F)F)cc2)Cc2ccccc21 (stereo not drawn) [Compound 3] | 0.59 | Deaths up to 21 days (male rats, Wistar strain; bait 2.0 ppm): 5/5; Deaths up to 21 days (male rats, Wistar strain; bait 5.0 ppm): 5/5; Deaths up to 21 days (male rats, Wistar strain; bait 10.0 ppm): 5/5; Deaths up to 21 days (male rats, Wistar strain; bait 20.0 ppm): 5/5; Death up to 21 days, rats ([2]; bait 50.0 ppm): 5/5; Death up to 21 days, mice ([3]; bait 50.0 ppm): 3/5
O=c1oc2ccccc2c(O)c1[C@@H]1C[C@H](c2ccc(-c3ccc(C(F)(F)F)cc3)cc2)Cc2ccccc21 (relative stereo) [Compound 25, 3[3-(4'-trifluoromethyl-4-yl)-1,2,3,4-tetrahydro-1-naphthyl]-4hydroxycoumarin] | 0.46 | 
O=c1oc2ccccc2c(O)c1C1CC(CCCc2ccccc2)Cc2ccccc21 (stereo not drawn) [Compound 29, reference compound] | 14.1 | 
O=c1oc2ccccc2c(O)c1C1CC(Cc2ccc(Cl)cc2Cl)Cc2ccccc21 (stereo not drawn) [Compound 6] | 1.8 | 
O=c1oc2ccccc2c(O)c1C1CC(c2ccc(/C=C/c3ccccc3)cc2)Cc2ccccc21 (stereo not drawn) [Compound 22] | 0.8 | 
